From patent US11225653B2, “Methods and compounds for reducing threonyl-tRNA synthetase activity” (University of Vermont and State Agricultural College, priority 2012, dated 2022)
Entries after “also recorded” stand apart in the source; their conditions may differ.

Tests used:
[1] = test system: Human umbilical vein endothelial cells (HUVECs); test: In vitro endothelial tube formation assay; assay type: cell-based; conditions: HUVECs on Matrigel, range of BC194 concentrations
Experimental: In vitro Tube Formation Assay-Tube formation assays were performed as described (Arnaoutova and Kleinman 2010; Cassavaugh, Hale et al. 2011). Human Umbilical Vein Endothelial Cells (HUVECs) were seeded in 48-well plates (1.5×10^4 cells/well) coated with 100 μl of Matrigel™ Basement Membrane Matrix Growth Factor Reduced (BD Biosciences, San Jose, Calif.) and incubated in Clonetics® EGM®-2 complete media (Lonza, Annandale, N.J.) or EGM®-2 with reduced serum (0.2% fetal bovine serum). Cells were incubated at 37° C. for 6 h then fixed in 10% formalin. Fixed samples were imaged by phase-contrast microscopy or stained with Oregon Green 488 Phalloidin (Molecular Probes, Eugene, Oreg.) then imaged with fluorescence microscopy (2× objective). Number of tubes and tube lengths (in pixels) were quantified using the Simple Neurite Tracer (Longair, Baker et al. 2011) plug-in on ImageJ software (NIH). Statistical analysis of one-way ANOVA was performed with GraphPad Software. Multiple comparisons were performed using the Tukey Test.

[2] = test system: HUVECs; test: Endothelial cell proliferation assay (alamarBlue); assay type: cell-based, human; conditions: 10 nM BC194, 50 ng/ml VEGF, low serum media
Experimental: Endothelial Cell Proliferation Assay—The […] alamarBlue® (Invitrogen) reagent was used to assess cell proliferation (Ahmed, Gogal et al. 1994). HUVECs were seeded in a 96-well dish (1×10^3 cells/well) and grown for 48 h in EGM®-2 media. Cells were incubated in 0.2% FBS EGM®-2 media or EGM®-2 complete media as indicated; VEGF (50 ng/ml) and media alone served as controls. After 48 h, 72 h, or 96 h in culture, 10 μl/well premixed alamarBlue® (Invitrogen) was added and after 3 h at 37° C. the amount of reduced alamarBlue® was quantified by fluorescence (excitation at 530 nm, emission at 590 nm) on a microplate reader (Synergy™ HT, BioTek, Winooski, Vt.).

[3] = test system: chorioallantoic membrane (CAM); test: Chick chorioallantoic membrane (CAM) assay; assay type: in vivo, chicken
Experimental: Chick Chorioallantoic Membrane Assay-Fertilized chicken eggs (Sunrise Farms, Catskill, N.Y.) day 1-2 post-laying were incubated in a humidified incubator at 37° C. for 72 h. Cleaned eggs were cracked and plated in a sterile 10 cm^2 tissue culture-treated dish and incubated at 37° C. for another 7 days. On developmental day 10, 1 mm^3 sterile gelatin sponge pieces (Surgifoam®; Johnson & Johnson Wound Management, Somerville, N.J.) were placed within the outer one-third of the membrane between large vessels. 40 μg/ml human bFGF and 2 μg/mL human VEGF were used as pro-angiogenic control compounds; 100 μg/mL retinoic acid (Sigma-Aldrich, St. Louis, Mo.) diluted in phosphate-buffered saline (PBS) was used as an angiostatic control. All compounds were applied in 10 μl to the CAM every 24 h for 72 h. Images were taken using a Leica MZ6 stereomicroscope every 24 h. Compounds were scored according to a modified version of Intensity Scoring as previously described (Ribatti, Nico et al. 2006). Briefly, each experimental condition was given a blinded score from 0-5 based on the change in the extent of vessel convergence and formation in proximity to the sponge from day 0 to day 3. Total score is averaged individual experimental condition scores from at least 15 replicates.
Fertilized chicken embryos were cultured ex-ova and, starting at developmental day 10, agents were applied daily to gelfoam sponges on the CAM. Images were recorded daily over 72 h and scored blindly according to a modified version Intensity Scoring as previously described (Ribatti, Nico et al. 2006). Additional details regarding methods are provided in the Methods and Materials section of Example 1.

[4] = test system: HUVEC; test: Transwell migration assay; assay type: cell-based, human; conditions: 10 nM BC194 with 50 ng/ml VEGF or 100 nM TARS, 4 h
Experimental: Transwell Migration Assay—Migration was assessed using transwell inserts (Svensson, Kucharzewska et al. 2011). HUVEC cultures were serum-depleted overnight in Clonetics® EGM®-2 modified with 0.2% fetal bovine serum then 5×10^4 cells were plated in 90% EBM®-2, 10% EGM®-2 in the upper chamber of 0.2% gelatin-coated 24-well 8 μm Transwell® inserts (Corning, Tewksbury, Mass.) with 90% EBM®-2, 10% EGM®-2 media plus 50 ng/ml VEGF, 1-100 nM TARS protein, or 10 nM BC194 in the lower chamber. Cultures were incubated for 4 h, fixed in 10% formalin, and stained with 10 μg/ml DAPI solution (Roche) following removal of cells from the top layer of the chamber with a cotton swab. Migrated cells were imaged using a 4× objective on the Olympus 1×70 Inverted microscope (Olympus). DAPI-stained nuclei were counted using ImageJ software.

[5] = molecular target: T1, human TARS (Homo sapiens, UniProt P26639); test: Ap4A formation assay; assay type: biochemical; conditions: FIGS. 17C and 17D, 10 μM compound
T1 construct: His6 (N); made in house; host or cells: E. coli Rosetta 2(DE3)pLysS, plasmid pET28a hctThrRS
T1 sequence (P26639 1-723): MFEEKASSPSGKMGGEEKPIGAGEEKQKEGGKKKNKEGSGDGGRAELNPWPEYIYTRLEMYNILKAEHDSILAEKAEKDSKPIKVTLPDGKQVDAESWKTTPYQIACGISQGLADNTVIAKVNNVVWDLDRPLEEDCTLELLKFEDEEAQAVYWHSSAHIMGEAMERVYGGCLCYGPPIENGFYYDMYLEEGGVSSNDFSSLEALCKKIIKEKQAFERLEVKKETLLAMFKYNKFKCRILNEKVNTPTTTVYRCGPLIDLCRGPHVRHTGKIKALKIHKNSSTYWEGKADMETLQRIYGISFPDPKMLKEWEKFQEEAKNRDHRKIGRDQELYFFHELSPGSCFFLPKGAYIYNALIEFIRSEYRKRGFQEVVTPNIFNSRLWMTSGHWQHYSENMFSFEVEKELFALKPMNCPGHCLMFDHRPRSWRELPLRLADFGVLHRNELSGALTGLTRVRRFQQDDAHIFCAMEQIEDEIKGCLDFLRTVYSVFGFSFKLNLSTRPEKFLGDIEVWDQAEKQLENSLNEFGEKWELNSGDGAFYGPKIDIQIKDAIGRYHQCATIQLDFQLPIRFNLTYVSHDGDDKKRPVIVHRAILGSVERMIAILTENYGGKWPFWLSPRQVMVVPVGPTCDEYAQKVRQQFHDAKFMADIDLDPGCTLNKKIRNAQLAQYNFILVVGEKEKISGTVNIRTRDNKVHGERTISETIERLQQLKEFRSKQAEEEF
Experimental: TARS purification and active site determination were performed as previously described (Williams, Mirando et al., 2013). TARS non-canonical catalytic activities were characterized using modifications from published methods (Guo, Chong et al. 2009). For Ap4A reactions 5 μM of wildtype TARS or R442A TARS were incubated for 10 minutes on ice with 2 mM threonine, and 10 μM BC194 or borrelidin as indicated in FIG. 17C. Reactions were initiated using 2 mM ATP with trace amounts of [α-^32P]-ATP as label. At specific time points aliquots were quenched in 3 volumes of 0.1% SDS, 400 mM sodium acetate and resolved on polyethyleneimine-cellulose plates by thin-layer chromatography (TLC) in 3 M NH4 (SO4)2 and 2% EDTA. Radioactive counts were identified by phosphorimaging and products quantified as fractions of total ATP added. The quantitation of product was normalized to take into account the fact that each Ap4A molecule has two equivalents of radioactive phosphorus.

[6] = molecular target: T1, human TARS; test: GTPase assay (GTP hydrolysis); assay type: biochemical; conditions: 10 μM BC194 or 10 μM borrelidin
[7] = molecular target: T2, human LARS (Homo sapiens, UniProt Q9P2J5); test: LARS steady state ATPase activity; assay type: biochemical; conditions: 1 μM human LARS
T2 construct: His6 (N); made in house; host or cells: E. coli, plasmid pPROEX hTb-LARS
Experimental: LARS steady state ATPase activity was determined using the same procedure as for TARS aminoacylation with the following modifications. […] ATP (PerkinElmer, Waltham, Mass.) was added. Reactions were incubated for 3 minutes at 37° C. and initiated with the addition of 1 μM human LARS. At various time points 5 μl aliquots were quenched in 45 μl of 500 mM sodium acetate and 0.1% sodium dodecyl sulfate. For each sample, 1 μl was spotted onto a CCM cellulose PEI F plates (EMD) and resolved via thin-layer chromatography in 0.75 M potassium phosphate buffer mobile phase.

T2 sequence (Q9P2J5 whole entry): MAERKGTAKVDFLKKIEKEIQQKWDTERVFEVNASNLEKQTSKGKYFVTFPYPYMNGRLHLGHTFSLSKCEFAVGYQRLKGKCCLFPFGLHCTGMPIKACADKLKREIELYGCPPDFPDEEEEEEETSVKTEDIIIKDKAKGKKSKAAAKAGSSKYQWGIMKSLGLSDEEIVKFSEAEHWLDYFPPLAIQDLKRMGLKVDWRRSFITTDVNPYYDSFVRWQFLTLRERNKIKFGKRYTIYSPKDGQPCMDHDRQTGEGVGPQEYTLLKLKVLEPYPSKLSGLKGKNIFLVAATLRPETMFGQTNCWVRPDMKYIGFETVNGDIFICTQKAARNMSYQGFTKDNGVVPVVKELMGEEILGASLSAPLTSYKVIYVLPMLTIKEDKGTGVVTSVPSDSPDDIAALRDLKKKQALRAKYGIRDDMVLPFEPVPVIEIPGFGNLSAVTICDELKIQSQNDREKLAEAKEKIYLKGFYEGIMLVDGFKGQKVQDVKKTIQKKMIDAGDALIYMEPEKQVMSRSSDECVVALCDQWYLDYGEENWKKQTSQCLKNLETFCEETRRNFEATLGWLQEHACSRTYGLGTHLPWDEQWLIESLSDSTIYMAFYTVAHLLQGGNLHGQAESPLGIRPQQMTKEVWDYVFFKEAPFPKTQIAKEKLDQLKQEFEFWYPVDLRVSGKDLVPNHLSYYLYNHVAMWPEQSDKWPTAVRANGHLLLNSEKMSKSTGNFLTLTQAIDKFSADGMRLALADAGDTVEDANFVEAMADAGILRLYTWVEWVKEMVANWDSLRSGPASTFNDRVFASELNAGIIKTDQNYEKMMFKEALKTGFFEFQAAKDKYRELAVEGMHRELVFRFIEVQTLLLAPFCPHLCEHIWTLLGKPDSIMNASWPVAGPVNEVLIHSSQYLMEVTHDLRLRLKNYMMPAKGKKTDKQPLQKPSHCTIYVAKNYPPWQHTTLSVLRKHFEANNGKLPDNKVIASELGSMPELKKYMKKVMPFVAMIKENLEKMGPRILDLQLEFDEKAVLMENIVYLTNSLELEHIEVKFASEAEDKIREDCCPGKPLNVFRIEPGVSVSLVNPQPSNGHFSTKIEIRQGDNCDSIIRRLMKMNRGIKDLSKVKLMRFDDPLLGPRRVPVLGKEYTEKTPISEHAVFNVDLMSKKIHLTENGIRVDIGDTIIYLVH

Compound	tube (branch) length [1]	effect on VEGF proliferative response [2]	inhibition of vessel formation on the CAM ([3]; daily application to gel sponge, basal, bFGF (40 μg/ml) or VEGF (2 μg/ml) stimulated)	effect on VEGF- and TARS-mediated migration [4]	inhibition of Ap4A and Ap4G synthesis (in words) [5]	change of TARS GTPase activity upon treatment [6]	vessel formation / vascularization on the CAM after applied protein ([3]; purified protein applied daily to sponge, scored over 72 h)	enzyme activity as conversion of 32P-ATP to AMP [7]
C[C@@H]1C[C@H](C)C[C@H](C)[C@@H](O)CC(=O)O[C@H]([C@@H]2CC[C@H]2C(=O)O)C/C=C/C=C(/C#N)[C@H](O)[C@@H](C)C1 [BC194, reference compound]	does not affect endothelial tube branch length	did not significantly reduce the VEGF proliferative response	inhibited vessel formation at both the basal level and after stimulation with either bFGF or VEGF	reduced both the migration effects of VEGF and TARS	at least partially inhibited	no observable change		
C[C@@H]1C[C@H](C)C[C@H](C)[C@@H](O)CC(=O)O[C@H]([C@@H]2CCC[C@H]2C(=O)O)C/C=C/C=C(/C#N)[C@H](O)[C@@H](C)C1 [borrelidin, reference compound]					at least partially inhibited	no observable change		
LARS: N-terminal His6-tagged human leucyl tRNA synthetase							no observable effect on vascularization; also recorded: has no effect on angiogenesis	exhibits enzyme activity
